The record followed here is ChEMBL document CHEMBL1135461, “Conformations and receptor activity of desmopressin analogues, which contain gamma-turn mimetics or a psi[CH(2)O] isostere” (2002).

Molecules are shown by their SMILES.

The subject of the experiment is Rattus norvegicus. The experiment in a line: In vivo antidiuretic activity in female Sprague-Dawley rats by intravenous administration using Vasopressin house standard (561 IU/mg).
In the case of `C[C@@H]1NC(=O)[C@H](Cc2ccccc2)NC(=O)[C@H](Cc2ccc(O)cc2)NC(=O)CCSSC[C@@H](C(=O)N2CCC[C@H]2C(=O)N[C@H](CCCN=C(N)N)C(=O)NCC(N)=O)NC(=O)[C@H](CC(N)=O)NC1=O`, the Agonist activity worked out at 645 IU mg-1.

`N=C(N)NCCC[C@H](NC(=O)[C@@H]1CCCN1C(=O)[C@@H]1CSSC[C@H](N)C(=O)N[C@@H](Cc2ccc(O)cc2)C(=O)N[C@@H](Cc2ccccc2)C(=O)N[C@@H](CCC(N)=O)C(=O)N[C@@H](CC(N)=O)C(=O)N1)C(=O)NCC(N)=O` [VASOPRESSIN] showed an Agonist activity of 561 IU mg-1. Consider `CC1OC2CN(C1=O)[C@@H](CC(N)=O)C(=O)N[C@H](C(=O)N1CCC[C@H]1C(=O)N[C@H](CCCN=C(N)N)C(=O)NCC(N)=O)CSSCCC(=O)N[C@@H](Cc1ccc(O)cc1)C(=O)N[C@H]2Cc1ccccc1` (stereo in doubt; 6), for which the Agonist activity is 0.0026 IU mg-1. With `N=C(N)NCCC[C@@H](NC(=O)[C@@H]1CCCN1C(=O)[C@@H]1CSSCCC(=O)N[C@@H](Cc2ccc(O)cc2)C(=O)N[C@@H](Cc2ccccc2)C(=O)N[C@@H](CCC(N)=O)C(=O)N[C@@H](CC(N)=O)C(=O)N1)C(=O)NCC(N)=O` [DESMOPRESSIN] the figure was 1000 IU mg-1. Turning to `C[C@@H]1OC[C@H](Cc2ccccc2)NC(=O)[C@H](Cc2ccc(O)cc2)NC(=O)CCSSC[C@@H](C(=O)N2CCC[C@H]2C(=O)N[C@H](CCCN=C(N)N)C(=O)NCC(N)=O)NC(=O)[C@H](CC(N)=O)NC1=O`, the Agonist activity came out at 0.56 IU mg-1.
